The target of the experiment is RecA (Escherichia coli, UniProt P0A7G6). As to the kind of experiment: biochemical.
Sequence of RecA (P0A7G6 2-353): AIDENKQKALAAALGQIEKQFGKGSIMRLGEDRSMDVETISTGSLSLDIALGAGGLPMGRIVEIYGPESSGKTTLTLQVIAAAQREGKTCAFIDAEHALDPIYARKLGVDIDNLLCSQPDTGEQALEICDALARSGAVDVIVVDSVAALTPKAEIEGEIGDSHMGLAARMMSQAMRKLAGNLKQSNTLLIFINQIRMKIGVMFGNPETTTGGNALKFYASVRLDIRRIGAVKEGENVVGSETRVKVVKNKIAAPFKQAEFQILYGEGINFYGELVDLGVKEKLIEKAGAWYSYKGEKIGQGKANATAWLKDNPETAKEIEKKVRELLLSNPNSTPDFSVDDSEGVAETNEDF

By IC50 is commonly meant the point on the concentration scale where inhibition reaches its midpoint. `CN1CCN(c2ccc(N3C(=O)C=CC3=O)cc2)CC1` [AHU3] displayed a half-inhibitory concentration (IC50) of 7.72 µM.

Values taken from publication PMC5127787 (Frontiers in Microbiology, 2016).
